# Source: US7855228B2, “Antibiotics targeting MreB” (The Board of Trustees of the Leland Stamford Junior …, priority 2005, dated 2010)
# Like-named read-outs stand apart in the source and are kept apart here.
# How the values were obtained:
# [1] = test system: E. coli K-12 strain SH3210; assay: Anucleate cell blue assay; format: cell-based
# Description: Anucleate cell blue assay. The anucleate cell blue assay was carried out as reported previously. Briefly, E. coli K-12 strain SH3210 (ΔtrpE5 his λ pXX747) was grown in a P medium containing 1% Polypepton and 0.5% NaCl (pH 7). Paper disks (φ 8 mm) each soaked with 20 μl of a sample solution were placed on P medium agar plates (1.5% agar) containing 10^4 cells/ml of SH3210 and 40 μg/ml of 5-bromo-4-chloro-3-indolyl β-D-galactoside. The plates were incubated at 42° C. for 24 h, and the development of a blue color and the growth inhibitory zone around the paper disks were evaluated.
# Since 1 had originally been found through screening by an anucleate cell blue assay, the effect of each compound was first examined by this assay.
# [2] = test system: S. aureus subsp. aureus NBRC15035; assay: Determination of minimum inhibitory concentration (MIC); format: cell-based, Staphylococcus aureus; conditions: for MIC S. aureus: Example 2; for MIC: Staphylococcus aureus
# Description: (§1) Determination of minimum inhibitory concentration (MIC). MICs were also determined on Mueller Hinton agar plates (0.2% beef extract, 1.75% acid digest of casein, 0.15% soluble starch, 1.5% agar, pH 7.3).
# (§2) Determination of MIC Minimal inhibitory concentrations (MICs) were determined using a standard 2-fold serial dilution format on L agar plates. Ten microliters of stationary culture diluted in 0.85% NaCl to 10^6 cells/ml were spotted on per plate. […] MICs were also determined on Mueller Hinton agar plates (0.2% beef extract, 1.75% acid digest of casein, 0.15% soluble starch, 1.5% agar, pH 7.3).
# B. subtilis 168 = assay: as above; format: cell-based, Bacillus subtilis; conditions: for MIC B. subtilis: Example 2
# Description: as §1, §2
# S. typhimurium NBRC13245 = assay: as above; format: cell-based, Salmonella typhimurium; conditions: for MIC: Salmonella enterica, read-out: MIC S. typhimurium
# Description: as §1, §2
# E. coli MG1655 [3] = assay: as above; format: cell-based; conditions: for MIC: Escherichia coli; for MIC E. coli: Example 2
# Description: as §1, §2
# E. coli MG1655 [4] = assay: Microscopic observation of cell shape; format: cell-based; conditions: for Effect on E. coli cell morphology (in words): 3×MIC or 300 μg/ml, 16 hrs
# Description: Microscopic observation. E. coli K-12 strain MG1655 (F^− λ^−) was grown in Lennox broth containing 1% Polypepton, 0.5% yeast extract, 0.5% NaCl, and 0.1% glucose (pH 7.2). Cells spread on a slide glass were treated with methanol for 5 min and covered with poly-L-lysine. The fixed cells were observed by the differential interference contrast system through an Axioskop 2 microscope (Carl Zeiss Co., Ltd., Oberkochen, Germany). To observe the anucleate cells, cells were stained with a 4′,6-diamidino-2-phenylindole (DAPI) solution (5 μg/ml in saline) and then observed by the fluorescence phase-contrast combined method.
# The effect of each compound on E. coli cell morphology was next examined.
# P. putida NBRC14164 = assay: Determination of minimum inhibitory concentration (MIC); format: cell-based, Pseudomonas putida; conditions: for MIC P. putida: Example 2; for MIC: Pseudomonas putida
# Description: as §1, §2
# HoIB-GFP = HoIB-GFP (replisome) localization; format: cell-based, Caulobacter crescentus; conditions: 1 hr treatment
# Description: To assess the ability of these cells to assemble a replisome at the replication origins, A22 was administered to cells expressing a fusion of GFP to the HoIB subunit of DNA polymerase.
# Caulobacter = Caulobacter morphology (DIC images); format: cell-based, Caulobacter crescentus; conditions: drugs that affect eukaryotic actin
# Source text: Consistent with previous observations in E. coli (Iwai et al., 2002), A22 caused a dose-dependent alteration of Caulobacter morphology, transforming normal, crescent-shaped cells into rounded, lemon-shaped cells. The progression of cell shape deformation by A22 treatment was qualitatively similar to that caused by mreB depletion, though the A22 effect was more rapid (FIGS. […]). […] For example, A22 could disrupt the localization of new cell wall synthesis but have no effect on the existing cell wall, such that without additional growth and wall synthesis A22's effects cannot be perceived. A dependence on cell growth could also explain why A22's effect on morphology takes several hours to manifest.
# Microscopy and Timelapse Imaging. All experiments other than the A22 flow-cell analysis were performed by mounting the samples on 1% agarose pads as described, with the appropriate concentration of A22 added to the agarose. The rates of origin-distal locus segregation were determined by inducing PxyI:lacI:cfp expression with 0.03% xylose for 75 min, isolating swarmer cells, and growing the swarmer cells in M2G liquid medium for 50 min. After 50 min, 10 μg/ml of A22 was added to these liquid cultures, they were mounted onto 1% M2G agarose pads containing 10 μg/ml A22, and a phase and CFP fluorescence image was captured every 2 min for 60 min. The images were analyzed by previously described software to determine the average position and rate of movement of the observed foci.
# [5] = NBRC15035, read-out: MIC S. aureus
# [6] = Bacillus subtilis, 168, read-out: MIC B. subtilis
# [7] = Example 2, methods as in Example 1
# [8] = E. coli MG1655 treated at 300 μg/ml (**), 30° C., 16 h
# [9] = NBRC14164, read-out: MIC P. putida
# [10] = NBRC15035, Example 2, methods as in Example 1, read-out: MIC S. aureus
# [11] = NBRC15035, Table 1, NBRC15035, read-out: MIC S. aureus
# [12] = Bacillus subtilis, 168, Example 2, methods as in Example 1, read-out: MIC B. subtilis
# [13] = Bacillus subtilis, 168, Table 1, B. subtilis 168, read-out: MIC B. subtilis
# [14] = MG1655, Example 2, methods as in Example 1, read-out: MIC E. coli
# [15] = MG1655, Table 1, E. coli MG1655, read-out: MIC E. coli
# [16] = NBRC14164, Example 2, methods as in Example 1, read-out: MIC P. putida
# [17] = NBRC14164, Table 1, NBRC14164, read-out: MIC P. putida
Molecule,Growth inhibitory zone and blue zone in the anucleate cell blue assay (in words) [1],Shape (E. coli MG1655 [4]; [8]),Shape (E. coli MG1655 [4]; [7]),"MIC [2, 10]","MIC [2, 11]",MIC (B. subtilis 168; [12]),MIC (B. subtilis 168; [13]),MIC (S. typhimurium NBRC13245; [7]),"MIC (S. typhimurium NBRC13245; Table 1, NBRC13245)",MIC (E. coli MG1655 [3]; [14]),MIC (E. coli MG1655 [3]; [15]),MIC (P. putida NBRC14164; [16]),MIC (P. putida NBRC14164; [17]),other results
"O=C=NCc1ccccc1 [Compound 9, benzylisocyanate, reference compound]",neither a growth inhibitory zone nor blue zone,Rod**,Rod,,,,,,,,,,,"MIC S. aureus ([2]; methods as in Example 1): >100 mg/L; MIC [2, 5]: > 100 mg/L; MIC (B. subtilis 168; [6]): > 100 mg/L; MIC B. subtilis (B. subtilis 168; methods as in Example 1): >100 mg/L; MIC S. typhimurium (S. typhimurium NBRC13245; [7]): >100 mg/L; MIC (S. typhimurium NBRC13245): > 100 mg/L; MIC (E. coli MG1655 [3]; MG1655, read-out: MIC E. coli): > 100 mg/L; MIC E. coli (E. coli MG1655 [3]; methods as in Example 1): >100 mg/L; MIC P. putida (P. putida NBRC14164; methods as in Example 1): >100 mg/L; MIC (P. putida NBRC14164; [9]): > 100 mg/L"
CO[C@@H]1[C@@H](OC(N)=O)[C@@H](O)[C@H](Oc2ccc3c(O)c(NC(=O)c4ccc(O)c(CC=C(C)C)c4)c(=O)oc3c2C)OC1(C)C [novobiocin],,,,,,,,,,,,,,HoIB-GFP localization (HoIB-GFP): rapid delocalization of HoIB-GFP
"N#CSCc1ccccc1 [Compound 7, S-benzylithiocyanate, reference compound]",neither a growth inhibitory zone nor blue zone,,Rod,,,,,,,,,,,"MIC S. aureus ([2]; methods as in Example 1): >100 mg/L; MIC [2, 5]: > 100 mg/L; MIC (B. subtilis 168; [6]): > 100 mg/L; MIC B. subtilis (B. subtilis 168; methods as in Example 1): >100 mg/L; MIC S. typhimurium (S. typhimurium NBRC13245; [7]): >100 mg/L; MIC (S. typhimurium NBRC13245): > 100 mg/L; MIC (E. coli MG1655 [3]; MG1655, read-out: MIC E. coli): > 100 mg/L; MIC E. coli (E. coli MG1655 [3]; methods as in Example 1): >100 mg/L; Shape (E. coli MG1655 [4]; E. coli MG1655 treated at 3×MIC (*), 30° C., 16 h): Rod*; MIC P. putida (P. putida NBRC14164; methods as in Example 1): >100 mg/L; MIC (P. putida NBRC14164; [9]): > 100 mg/L"
latrunculin,,,,,,,,,,,,,,Caulobacter growth rate or morphology (Caulobacter): failed to perturb growth rate or morphology
"CCCCCCCSC(=N)N [Compound 5, S-heptylisothiourea]",a growth inhibitory zone as well as a blue zone,Rod**,Rod,> 200 mg/L,> 100 mg/L,> 200 mg/L,> 100 mg/L,> 200 mg/L,> 100 mg/L,200 mg/L,> 100 mg/L,200 mg/L,> 100 mg/L,"Effect on E. coli cell morphology (in words) (E. coli MG1655 [4]; 30° C.): somewhat elongated cells, but not spherical cells"
"S=C=NCc1ccccc1 [Compound 8, benzylisothiocyanate, reference compound]","a growth inhibitory zone, but no blue zone developed",Rod**,Rod,12.5 mg/L,12.5 mg/L,25 mg/L,25 mg/L,100 mg/L,100 mg/L,50 mg/L,50 mg/L,> 100 mg/L,> 100 mg/L,
N=C(N)SCC1CCCCC1 [Compound 4],neither a growth inhibitory zone nor blue zone,Rod**,Short Rod,> 200 mg/L,> 100 mg/L,> 200 mg/L,> 100 mg/L,> 200 mg/L,> 100 mg/L,> 200 mg/L,> 100 mg/L,> 200 mg/L,> 100 mg/L,"Effect on E. coli cell morphology (in words) (E. coli MG1655 [4]; 30° C.): shorter than corresponding untreated cells, but spherical cells were not induced"
